# According to patent US12065443B2, “Compounds and pharmaceutical compositions thereof for the treatment of diseases” (priority 2017, dated 2024):
# Tests used:
# SIK1 = molecular target: T1, SIK1 (Homo sapiens, UniProt P57059); assay: biochemical; settings: 33P radioactive SIK kinase assay, AMARA peptide, 10 μM ATP; read-out: SIK1 IC50
# T1 construct: purchased Carna Biosciences 02-131
# Procedure, shortened: (§1)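 Read-out: ^33P incorporated into AMARA peptide, counted on filter plates, taken as kinase activity. Reactions start on addition of labeled/unlabeled ATP to enzyme plus substrate and end with phosphoric acid. Controls: 1% DMSO (negative) and 10 μM staurosporine (positive), final.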
# SIK2 = molecular target: T2, SIK2 (Homo sapiens, UniProt Q9H0K1); assay: biochemical; settings: 33P radioactive SIK kinase assay, AMARA peptide, 10 μM ATP
# T2 construct: purchased ThermoFisher Scientific PV4792
# Procedure, shortened: as §1
# SIK3 = molecular target: T3, SIK3 (Homo sapiens, UniProt Q9Y2K2); assay: biochemical
# T3 construct: purchased SignalChem S12-11G-100
# Procedure, shortened: as §1
# [1] = system: LPS-induced TNFα secretion in monocyte-derived macrophages (MdM); assay: MdM assay: LPS-triggered TNFα (ELISA); format: cell-based, human; settings: Homo sapiens, Macrophage, LPS-triggered TNFα inhibition
# Procedure, shortened: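 Human CD14+ monocytes isolated from buffy-coat PBMCs by magnetic beads, differentiated to macrophages; on day 10 compound preincubated 1 h at 37 °C, then LPS 200 ng/mL added (0.2% DMSO). Supernatant taken after 20 h; TNFα quantified by sandwich ELISA against standard curve.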
# [2] = system: LPS triggered IL-10 secretion in monocyte-derived macrophages (MdM); assay: MdM assay: LPS-triggered IL-10 (ELISA); format: cell-based, human; settings: maximal fold change vs LPS only, median across assays
# Experimental: This assay evaluates illustrative compounds of the invention for their inhibition of LPS-induced TNFα and LPS triggered IL-10 secretion in monocyte-derived macrophages.
# PBMCs are isolated from human blood samples (buffycoats). The buffy coat is aseptically transferred into a 50 mL Falcon tube, and diluted 1/2 in PBS. Falcon tubes are filled with 20 mL Lymphoprep™, on top of which 25 mL of the buffy coat is carefully added, tubes are centrifuged for 35 min at 400 g in temperature controlled centrifuge, without brake, at 25° C. PBMCs are aspirated from the white interface layer between sample and Lymphoprep™. PBMCs are washed five times in PBS.
# PBMCs are centrifuged at 300×g for 10 min and resuspended at a density of 1.0E07 cells/80 μL Miltenyi buffer (PBS, pH 7.4, 1% FBS, 2 mM EDTA).
# Starting from this point of the protocol all steps are performed on ice. 20 μL of CD14+ micro-beads are added per 1.0E07 cells, the tube is mixed and incubated for 15 min in the fridge at 4° C. Cell suspension volume is adjusted to total volume of 100 mL using Miltenyi buffer, mixed gently and subsequently centrifuged for 10 min at 300× g. Supernantant is discarded and cell pellet is resuspended in 12 mL of Miltenyi buffer.
# Four LS columns are placed in the MACS Separator (magnet) from Miltenyi Biotec, and are prewet by rinsing with 3 mL of MACS buffer per column. Three mL of cell suspension is added onto the column (max 1*10^8 of labelled cells/column), and columns are subsequently washed 3 times with 3 mL of Miltenyi buffer.
# The columns are removed from the magnets, and 5 mL of Miltenyi buffer are added to the column to flush out the CD14+ fraction by pushing the plunger into the column. The flushed fractions are collected in a fresh 50 mL Falcon and volume is adjusted to 30 mL using Miltenyi buffer, cells are centrifuged for 10 min at 300× g. The obtained cell pellet is resuspended in 10 mL RPMI w/o FBS, and cell density is determined using a hematologic analyser (Sysmex XS-500i).
# On day 10, MdMs are triggered and compound is added.
# A compound dilution plate is made in 100% DMSO by 3-fold dilution of 10 mM stock solution. An intermediate dilution plate (10× final concentration) is made by diluting the compound dilution plate 50-fold in RPMI medium.
# Medium is carefully removed from cell plates using multichannel pipette, and replaced by 80 μL fresh medium. 10 μL of the 10× final concentration compound is added to the cells and incubated for 1 hour at 37° C. before addition of trigger. No trigger conditions/trigger conditions are spiked with equal final DMSO concentrations of 0.2% DMSO. 10 μL of 10×LPS (final conc. 200 ng/mL) solution are added to all wells except for the ‘no trigger wells’ where 10 μL medium is added. Supernatant is collected after 2 h (IL-10 determination) and after 20 h (TNFα determination) of LPS triggering.
# Plates are washed three times with PBST, where after 100 μL of Strep-HRP conjugate (0.5 μg/mL final concentration diluted in dilution buffer) is added. Plates are incubated in the dark, at 37° C. for 30 min. Plates are washed three times with PBST. […] 100 μL of substrate solution is added to each well and incubated until brilliant blue color develops. The reaction is stopped by adding 50 μL of 1 M H2SO4, after which absorbance is measured at 450 nm on the SpectraMax i3, Molecular Devices.
# To quantify these inductions fold changes (FC) compared to ‘LPS only’ are calculated for each concentration tested and the maximal FC is calculated (IL-10 FCmax):
# [formula] wherein ABS=Absorbance measured at 450 nm.
# The median maximal FC for test compounds across two or more assays is reported (IL-10FCmax median).
# T1 sequence (P57059 whole entry): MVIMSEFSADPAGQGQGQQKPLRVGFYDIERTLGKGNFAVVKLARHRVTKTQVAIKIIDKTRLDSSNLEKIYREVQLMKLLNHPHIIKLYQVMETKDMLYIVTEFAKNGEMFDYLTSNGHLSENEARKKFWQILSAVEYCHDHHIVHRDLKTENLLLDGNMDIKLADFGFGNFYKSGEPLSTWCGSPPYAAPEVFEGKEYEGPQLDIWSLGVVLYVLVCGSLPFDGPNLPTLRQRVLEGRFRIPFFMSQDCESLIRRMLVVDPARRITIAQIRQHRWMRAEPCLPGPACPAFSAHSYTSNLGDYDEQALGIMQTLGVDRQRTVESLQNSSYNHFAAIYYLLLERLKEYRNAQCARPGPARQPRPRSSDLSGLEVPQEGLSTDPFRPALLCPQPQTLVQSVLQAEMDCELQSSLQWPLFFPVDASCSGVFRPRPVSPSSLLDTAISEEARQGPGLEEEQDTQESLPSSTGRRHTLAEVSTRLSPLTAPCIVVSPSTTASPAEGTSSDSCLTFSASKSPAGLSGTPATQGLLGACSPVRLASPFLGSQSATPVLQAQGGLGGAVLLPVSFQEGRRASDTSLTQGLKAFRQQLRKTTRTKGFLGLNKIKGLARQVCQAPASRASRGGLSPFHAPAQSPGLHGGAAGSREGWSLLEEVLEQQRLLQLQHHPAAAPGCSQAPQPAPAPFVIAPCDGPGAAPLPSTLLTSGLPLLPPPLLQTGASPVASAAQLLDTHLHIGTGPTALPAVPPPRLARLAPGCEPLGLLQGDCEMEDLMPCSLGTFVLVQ
# T2 sequence (Q9H0K1 whole entry): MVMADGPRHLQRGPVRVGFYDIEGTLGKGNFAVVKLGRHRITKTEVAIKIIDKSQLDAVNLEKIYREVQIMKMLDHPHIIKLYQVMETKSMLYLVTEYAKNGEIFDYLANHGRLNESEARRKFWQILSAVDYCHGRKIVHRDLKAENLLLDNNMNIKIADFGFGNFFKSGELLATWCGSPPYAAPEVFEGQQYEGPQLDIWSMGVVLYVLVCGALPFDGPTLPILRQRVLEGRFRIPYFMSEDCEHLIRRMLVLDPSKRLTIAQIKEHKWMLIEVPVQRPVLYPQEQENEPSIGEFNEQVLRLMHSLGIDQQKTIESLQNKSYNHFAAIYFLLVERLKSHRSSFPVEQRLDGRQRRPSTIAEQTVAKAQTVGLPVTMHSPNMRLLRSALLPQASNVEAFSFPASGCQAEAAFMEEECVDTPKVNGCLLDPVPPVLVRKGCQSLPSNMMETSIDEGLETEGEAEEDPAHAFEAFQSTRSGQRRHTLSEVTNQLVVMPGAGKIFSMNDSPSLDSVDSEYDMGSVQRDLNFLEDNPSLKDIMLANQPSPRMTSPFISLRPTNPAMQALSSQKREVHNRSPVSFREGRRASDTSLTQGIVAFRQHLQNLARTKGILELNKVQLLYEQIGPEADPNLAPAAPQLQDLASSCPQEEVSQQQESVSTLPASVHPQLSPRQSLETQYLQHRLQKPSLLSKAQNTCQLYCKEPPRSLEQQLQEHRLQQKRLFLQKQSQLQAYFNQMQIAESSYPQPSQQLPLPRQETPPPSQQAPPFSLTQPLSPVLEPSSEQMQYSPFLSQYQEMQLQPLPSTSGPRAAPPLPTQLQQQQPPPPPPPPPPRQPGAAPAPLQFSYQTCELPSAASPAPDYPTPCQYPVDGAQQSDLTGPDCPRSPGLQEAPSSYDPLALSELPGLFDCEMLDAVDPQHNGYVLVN
# T3 sequence (Q9Y2K2 whole entry): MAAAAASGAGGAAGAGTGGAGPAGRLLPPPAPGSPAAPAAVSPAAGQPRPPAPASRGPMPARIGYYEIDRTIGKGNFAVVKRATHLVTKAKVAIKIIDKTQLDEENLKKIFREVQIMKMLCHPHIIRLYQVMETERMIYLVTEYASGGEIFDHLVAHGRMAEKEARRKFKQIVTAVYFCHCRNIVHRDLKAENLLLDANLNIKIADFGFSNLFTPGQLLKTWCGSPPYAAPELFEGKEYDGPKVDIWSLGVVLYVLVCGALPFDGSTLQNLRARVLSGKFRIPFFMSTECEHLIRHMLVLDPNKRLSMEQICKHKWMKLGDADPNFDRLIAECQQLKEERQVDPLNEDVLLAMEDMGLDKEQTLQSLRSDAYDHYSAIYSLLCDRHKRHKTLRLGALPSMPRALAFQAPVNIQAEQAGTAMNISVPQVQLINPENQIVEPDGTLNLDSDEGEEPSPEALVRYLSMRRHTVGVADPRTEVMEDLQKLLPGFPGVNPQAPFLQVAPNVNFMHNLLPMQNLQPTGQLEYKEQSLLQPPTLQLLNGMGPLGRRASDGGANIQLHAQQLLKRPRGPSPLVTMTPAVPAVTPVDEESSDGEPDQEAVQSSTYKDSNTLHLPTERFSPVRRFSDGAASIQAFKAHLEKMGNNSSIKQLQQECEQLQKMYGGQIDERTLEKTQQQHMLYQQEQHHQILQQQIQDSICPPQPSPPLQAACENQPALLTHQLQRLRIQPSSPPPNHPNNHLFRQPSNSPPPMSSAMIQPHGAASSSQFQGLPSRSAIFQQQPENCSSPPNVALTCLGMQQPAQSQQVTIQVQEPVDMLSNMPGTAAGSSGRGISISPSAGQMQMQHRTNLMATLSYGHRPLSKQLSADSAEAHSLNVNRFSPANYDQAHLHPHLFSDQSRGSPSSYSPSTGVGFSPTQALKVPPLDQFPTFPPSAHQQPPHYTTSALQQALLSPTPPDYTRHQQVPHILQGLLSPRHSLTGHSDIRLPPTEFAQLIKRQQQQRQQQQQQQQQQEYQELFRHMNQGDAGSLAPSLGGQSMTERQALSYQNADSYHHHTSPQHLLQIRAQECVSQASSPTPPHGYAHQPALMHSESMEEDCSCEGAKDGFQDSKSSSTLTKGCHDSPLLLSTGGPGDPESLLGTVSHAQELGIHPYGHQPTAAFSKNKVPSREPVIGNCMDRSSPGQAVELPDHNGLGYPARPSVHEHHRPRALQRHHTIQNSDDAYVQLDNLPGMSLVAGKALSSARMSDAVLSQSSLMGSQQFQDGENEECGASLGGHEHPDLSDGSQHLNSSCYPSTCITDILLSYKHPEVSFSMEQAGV
Structure (SMILES),IC50 (SIK1),IC50 (SIK2),IC50 (SIK3),EC50 [1],IL-10 FCmax median [2]
"COc1cc(-c2cnc3cc(-c4cnn(C)c4)ccn23)cc(C)c1C(=O)NCC(F)(F)F [Cpd 206, 2-methoxy-6-methyl-4-[7-(1-methylpyrazol-4-yl)imidazo[1,2-a]pyridin-3-yl]-N-(2,2,2-trifluoroethyl)benzamide]",10 to 100 nM,10 to 100 nM,10 to 100 nM,100 to 1000 nM,+++ (>4.5)
"COc1cc(-c2cnc3cc(-c4cnn(CC(=O)O)c4)ccn23)cc(OC)c1C(=O)NCC(F)(F)F [Cpd 228, 2-[4-[3-[3,5-dimethoxy-4-(2,2,2-trifluoroethyl-carbamoyl)phenyl]imidazo[1,2-a]pyridin-7-yl]pyrazol-1-yl]acetic acid]",0.01 to 10 nM,0.01 to 10 nM,0.01 to 10 nM,> 5000 nM,++ (>1.5-4.5)
"CCNC(=O)c1c(OC)cc(-n2cnc3cc(-c4ccc(N5CCOCC5)nc4)ccc32)cc1OC [compound 3, N-ethyl-2,6-dimethoxy-4-[5-(6-morpholino-3-pyridyl)benzimidazol-1-yl]benzamide]",10 to 100 nM,10 to 100 nM,10 to 100 nM,100 to 1000 nM,++ (>1.5-4.5)
"CCNC(=O)c1c(OC)cc(-n2cnc3cc(-c4cnn(CCN5CCOCC5)c4)ccc32)cc1OC [compound 4, N-ethyl-2,6-dimethoxy-4-[5-[1-(2-morpholinoethyl)pyrazol-4-yl]benzimidazol-1-yl]benzamide]",10 to 100 nM,10 to 100 nM,10 to 100 nM,1000 to 5000 nM,++ (>1.5-4.5)
"CCNC(=O)c1c(OC)cc(-c2cnn3cc(-c4cnn(CC)c4)cnc23)cc1OC [compound 9, N-ethyl-4-[6-(1-ethylpyrazol-4-yl)pyrazolo[1,5-a]pyrimidin-3-yl]-2,6-dimethoxy-benzamide]",10 to 100 nM,10 to 100 nM,10 to 100 nM,100 to 1000 nM,++ (>1.5-4.5)
"CCn1cc(-c2cnc3c(-c4cc(OC)c(C(=O)NCC(F)(F)F)c(OC)c4)cnn3c2)cn1 [compound 20, 4-[6-(1-ethylpyrazol-4-yl)pyrazolo[1,5-a]pyrimidin-3-yl]-2,6-dimethoxy-N-(2,2,2-trifluoroethyl)benzamide]",10 to 100 nM,0.01 to 10 nM,10 to 100 nM,100 to 1000 nM,++ (>1.5-4.5)
"COc1cc(-c2cnn3cc(-c4cnn(C)c4)cnc23)cc(OC)c1C(=O)NCC(F)F [compound 24, N-(2,2-difluoroethyl)-2,6-dimethoxy-4-[6-(1-methylpyrazol-4-yl)pyrazolo[1,5-a]pyrimidin-3-yl]benzamide]",10 to 100 nM,0.01 to 10 nM,10 to 100 nM,100 to 1000 nM,++ (>1.5-4.5)
"COc1cc(-n2cnc3cc(-c4cnn(CCO)c4)ccc32)cc(OC)c1C(=O)NCC(F)(F)F [compound 33, 4-[5-[1-(2-hydroxyethyl)pyrazol-4-yl]benzimidazol-1-yl]-2,6-dimethoxy-N-(2,2,2-trifluoroethyl)benzamide]",0.01 to 10 nM,0.01 to 10 nM,0.01 to 10 nM,> 5000 nM,++ (>1.5-4.5)
"COc1cc(-n2cnc3cc(-c4cnn(CCN5CCOCC5)c4)ccc32)cc(OC)c1C(=O)NCC(F)(F)F [compound 41, 2,6-dimethoxy-4-[5-[1-(2-morpholinoethyl)pyrazol-4-yl]benzimidazol-1-yl]-N-(2,2,2-trifluoroethyl)benzamide]",10 to 100 nM,0.01 to 10 nM,0.01 to 10 nM,100 to 1000 nM,++ (>1.5-4.5)
"COc1cc(-n2cnc3cc(-c4cnn(C)c4)ccc32)cc(OC)c1C(=O)N[C@@H](C)C(F)(F)F [compound 80, 2,6-dimethoxy-4-[5-(1-methylpyrazol-4-yl)benzimidazol-1-yl]-N-[(1S)-2,2,2-trifluoro-1-methyl-ethyl]benzamide]",10 to 100 nM,0.01 to 10 nM,10 to 100 nM,0.1 to 100 nM,++ (>1.5-4.5)

# Further lines, with some results ahead:
IC50 (SIK1),IC50 (SIK2),IC50 (SIK3),EC50 [1],Structure (SMILES),IL-10 FCmax median [2]
10 to 100 nM,0.01 to 10 nM,0.01 to 10 nM,0.1 to 100 nM,"COc1cc(-n2cnc3cc(-c4cnn(C)c4)ccc32)cc(OC)c1C(=O)NC1CC1 [Cpd 86, N-cyclopropyl-2,6-dimethoxy-4-[5-(1-methylpyrazol-4-yl)benzimidazol-1-yl]benzamide]",++ (>1.5-4.5)
10 to 100 nM,0.01 to 10 nM,0.01 to 10 nM,100 to 1000 nM,"CCn1cc(-c2ccc3c(c2)ncn3-c2cc(OC)c(C(=O)NCCF)c(OC)c2)cn1 [compound 10, 4-[5-(1-ethylpyrazol-4-yl)benzimidazol-1-yl]-N-(2-fluoroethyl)-2,6-dimethoxy-benzamide]",++ (>1.5-4.5)
10 to 100 nM,0.01 to 10 nM,0.01 to 10 nM,100 to 1000 nM,"CCn1cc(-c2ccc3c(c2)ncn3-c2cc(OC)c(C(=O)NCC(F)F)c(OC)c2)cn1 [compound 11, N-(2,2-difluoroethyl)-4-[5-(1-ethylpyrazol-4-yl)benzimidazol-1-yl]-2,6-dimethoxy-benzamide]",++ (>1.5-4.5)
10 to 100 nM,0.01 to 10 nM,0.01 to 10 nM,0.1 to 100 nM,"COc1cc(-n2cnc3cc(-c4cnn(CC#N)c4)ccc32)cc(OC)c1C(=O)NCC(F)(F)F [compound 40, 4-[5-[1-(cyanomethyl)pyrazol-4-yl]benzimidazol-1-yl]-2,6-dimethoxy-N-(2,2,2-trifIuoroethyl)benzamide]",++ (>1.5-4.5)
10 to 100 nM,10 to 100 nM,10 to 100 nM,> 5000 nM,"CCn1cc(-c2ccc3c(c2)ncn3-c2cc(OC)c(C(=O)NC3C[C@H]3C)c(OC)c2)cn1 (stereo partly drawn) [compound 49, 4-[5-(1-ethylpyrazol-4-yl)benzimidazol-1-yl]-2,6-dimethoxy-N-[(2R)-2-methylcyclopropyl]benzamide]",++ (>1.5-4.5)
10 to 100 nM,0.01 to 10 nM,0.01 to 10 nM,100 to 1000 nM,"CCn1cc(-c2ccc3c(c2)ncn3-c2cc(OC)c(C(=O)NCC#N)c(OC)c2)cn1 [compound 50, N-(cyanomethyl)-4-[5-(1-ethylpyrazol-4-yl)benzimidazol-1-yl]-2,6-dimethoxy-benzamide]",++ (>1.5-4.5)
10 to 100 nM,0.01 to 10 nM,0.01 to 10 nM,0.1 to 100 nM,"CCn1cc(-c2ccc3c(c2)ncn3-c2cc(OC)c(C(=O)NC3CC3)c(OC(F)F)c2)cn1 [compound 54, N-cyclopropyl-2-(difluoromethoxy)-4-[5-(1-ethylpyrazol-4-yl)benzimidazol-1-yl]-6-methoxy-benzamide]",++ (>1.5-4.5)
